Measurements taken from ChEMBL document CHEMBL1144280, “Inhibitors of type I MetAPs containing pyridine-2-carboxylic acid thiazol-2-ylamide. Part 1: SAR studies on the determination of the key scaffold” (Bioorg Med Chem Lett, 2005).

Tests used:
[1] = target: T1, Methionine aminopeptidase (Escherichia coli K-12, UniProt P0AE18); test: Inhibitory concentration against Escherichia coli methionine aminopeptidase 1
T1 sequence (P0AE18 whole entry): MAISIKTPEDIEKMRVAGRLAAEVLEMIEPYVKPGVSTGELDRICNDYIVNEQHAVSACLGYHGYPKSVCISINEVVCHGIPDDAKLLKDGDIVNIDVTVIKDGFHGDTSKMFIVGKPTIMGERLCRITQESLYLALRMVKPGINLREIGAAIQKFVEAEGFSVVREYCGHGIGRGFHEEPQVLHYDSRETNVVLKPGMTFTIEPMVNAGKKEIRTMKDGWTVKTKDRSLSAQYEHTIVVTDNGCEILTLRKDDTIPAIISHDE

[2] = target: T2, Methionine aminopeptidase 1 (Saccharomyces cerevisiae S288c, UniProt Q01662); test: Inhibitory concentration against Saccharomyces cerevisiae methionine aminopeptidase 1
T2 sequence (Q01662 whole entry): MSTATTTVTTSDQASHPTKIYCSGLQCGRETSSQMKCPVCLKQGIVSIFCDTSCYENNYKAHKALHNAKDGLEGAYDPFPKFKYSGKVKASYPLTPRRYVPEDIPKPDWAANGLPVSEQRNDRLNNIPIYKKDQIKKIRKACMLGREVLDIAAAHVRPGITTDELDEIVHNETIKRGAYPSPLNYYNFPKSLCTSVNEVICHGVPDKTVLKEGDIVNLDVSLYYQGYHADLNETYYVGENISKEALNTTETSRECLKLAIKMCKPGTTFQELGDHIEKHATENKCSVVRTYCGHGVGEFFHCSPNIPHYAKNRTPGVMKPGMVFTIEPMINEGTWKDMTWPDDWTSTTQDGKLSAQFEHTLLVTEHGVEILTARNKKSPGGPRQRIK

IC50 [1]	IC50 [2]	Structure (SMILES)
12.8 µM	62.9 µM	CC(C)(C)OC(=O)Nc1ccc(C(=O)Nc2nccs2)nc1
4.51 µM	> 100 µM	O=C(Nc1nccs1)c1cc([N+](=O)[O-])ccn1
> 100 µM	–	CC(=O)OCc1cccc(C(=O)Nc2nccs2)n1
–	> 100 µM	COc1ccnc(C(=O)Nc2nccs2)c1
> 100 µM	> 100 µM	O=C(Nc1nccs1)c1cc(OCc2ccccc2)ccn1
> 100 µM	> 100 µM	CCCCc1ccc(C(=O)Nc2nccs2)nc1
1.98 µM	17 µM	CC(=O)Nc1ccnc(C(=O)Nc2nccs2)c1
2.32 µM	> 100 µM	O=C(Nc1nccs1)c1cc(NCc2ccccc2)ccn1
> 100 µM	> 100 µM	O=C(Nc1nccs1)c1cccc(C(=O)Nc2nccs2)n1
6.71 µM	> 100 µM	Nc1ccnc(C(=O)Nc2nccs2)c1
2.09 µM	2.43 µM	Nc1ccc(C(=O)Nc2nccs2)nc1
1.41 µM	0.77 µM	O=C(Nc1nccs1)c1ncccc1OCc1ccccc1
> 100 µM	> 100 µM	CC(C)=CCc1ccc(C(=O)Nc2nccs2)nc1
> 100 µM	> 100 µM	O=C(Nc1nccs1)c1cc(Cl)ccn1
